According to patent publication US20070135431A1, “INHIBITORS OF HISTONE DEACETYLASE FOR THE TREATMENT OF DISEASE” (KALYPSYS, INC, priority 2005, published 2007):

How the values were obtained:
HDAC in cells = assay: Cellular HDAC inhibition (cellular histone hyperacetylation / cytotoxicity assays; Table 1 only says Cellular IC50); format: cell-based; settings: transformed cell lines (e.g. HeLa, A549, MCF-7); cell line not given
Experimental: 2) Cellular Histone Hyperacetylation Assays:
These two secondary assays evaluate a compound's ability to inhibit HDAC in cells by measuring cellular histone acetylation levels. The cytoblot facilitates quantitative EC50 information for cellular HDAC inhibition. Transformed cell lines (e.g. HeLa, A549, MCF-7) are cultured under standard media and culture conditions prior to plating.
Cells (approx. 2,500/well) are allowed to adhere 10-24 hours to wells of a 384-well Greiner PS assay plate in media containing 1-5% serum. Cells are treated with appropriate compound and specific concentrations for 0 to 24 hours. Cells are washed once with PBS (60 μL) and then fixed (95% ethanol, 5% acetic acid or 2% PFA) for 1 minute at RT (30 μL). Cells are blocked with 1% BSA for 1 hour and washed and stained with antibody (e.g. anti-Acetylated Histone H3, Upstate Biotechnology), followed by washing and incubation with an appropriate secondary antibody conjugated to HRP or fluorophore. For luminescence assays, signal is generated using Luminol substrate (Santa Cruz Biotechnology) and detected using an Aquest plate reader (Molecular Devices).
3) Differential Cytotoxicity Assay:
HDAC inhibitors display differential cytotoxicity toward certain transformed cell lines. Cells are cultured according to standard ATCC recommended conditions that are appropriate to each cell type. Compounds were tested for their ability to kill different cell types (normal and transformed) using the ATPlite luminescence ATP detection assay system (Perkin Elmer). Assays are run in either 384-well or 1536-well Greiner PS plates. Cells (30 μL or 5 μL, respectively) are dispensed using either multichannel pipette for 384-well plates, or proprietary Kalypsys bulk liquid dispenser for 1536-well plates. Compounds added using proprietary pin-transfer device (500 nL or 5 nL) and incubated 5 to 30 hours prior to analysis. Luminescence is measured using Aquest plate reader (Molecular Devices).

HDAC = assay: In vitro HDAC-inhibition assay (Fluor de Lys fluorescent activity assay); format: biochemical; settings: HDAC enzyme source (e.g. nuclear extract or immunopurified HDAC complexes), Fluor de Lys substrate, 30 minutes RT
Experimental: 1) In vitro HDAC-inhibition Assay:
This assay measures a compound's ability to inhibit acetyl-lysine deacetylation in vitro and was used as both a primary screening method as well as for IC50 determinations of confirmed inhibitors. The assay is performed in vitro using an HDAC enzyme source (e.g. partially purified nuclear extract or immunopurified HDAC complexes) and a proprietary fluorescent substrate/developer system (HDAC Quantizyme Fluor de Lys Fluorescent Activity Assay, BIOMOL). The assay is run in 1,536-well Greiner white-bottom plates using the following volumes and order of addition: • Step 1: Enzyme (2.5 μL) source added to plate (from refrigerated container) • Step 2: Compounds (50 nL) added with pin transfer device • Step 3: Fluor de Lys (2.5 μL) substrate added, incubate at RT, 30 minutes • Step 4: Developer (5 μL) solution is added (containing TSA), to stop reaction • Step 5: Plate Reader—data collection
The deacetylated fluorophore is excited with 360 nm light and the emitted light (460 nm) is detected on an automated fluorometric plate reader (Aquest, Molecular Devices).

IC50 (HDAC)	SMILES	IC50 (HDAC in cells)
≤ 1000 nM	CC(=O)SCC(=O)c1ccc(NS(=O)(=O)c2ccc(OC(C)CN3CCCCC3)cc2)nc1 (stereo not drawn) [Example 32, Thioacetic acid S-(2-{6-[4-(1-methyl-2-piperidin-1-yl-ethoxy)-benzenesulfonylamino]-pyridin-3-yl}-2-oxo-ethyl) ester]	≤ 1000 nM
≤ 1000 nM	CC(=O)SCC(=O)c1ccc(NS(=O)(=O)c2ccc(OCc3cccnc3)cc2)nc1 [Example 27, Thioacetic acid S-(2-oxo-2-{6-[4-(pyridin-3-ylmethoxy)-benzenesulfonylamino]-pyridin-3-yl}-ethyl) ester]	≤ 1000 nM
≤ 1000 nM	CC(=O)SCC(=O)c1ccc(NS(=O)(=O)c2ccc(OCCCN3CCCC3)cc2)nc1 [Example 33, Thioacetic acid S-(2-oxo-2-{6-[4-(3-pyrrolidin-1-yl-propoxy)-benzenesulfonylamino]-pyridin-3-yl}-ethyl) ester]	≤ 1000 nM
≤ 1000 nM	CC(=O)SCC(=O)c1ccc(NS(=O)(=O)c2ccc(Oc3ccccc3C)cc2)cc1 [Example 01, Thioacetic acid S-{2-oxo-2-[4-(4-o-tolyloxy-benzenesulfonylamino)-phenyl]-ethyl} ester]	≤ 1000 nM
≤ 1000 nM	CC(=O)SCC(=O)c1ccc(NS(=O)(=O)c2ccc(OCCN3CCCCC3)cc2)cc1 [Example 19, Thioacetic acid S-(2-oxo-2-{4-[4-(2-piperidin-1-yl-ethoxy)-benzenesulfonylamino]-phenyl}-ethyl) ester]	≤ 1000 nM
≤ 1000 nM	CC(=O)SCC(=O)c1ccc(NS(=O)(=O)c2ccc(CN3CCOCC3)cc2)cc1 [Example 07, Thioacetic acid S-{2-[4-(4-morpholin-4-ylmethyl-benzenesulfonylamino)-phenyl]-2-oxo-ethyl} ester]	≤ 1000 nM
≤ 1000 nM	CC(=O)SCC(=O)c1ccc(NS(=O)(=O)c2ccc(OCCc3ccccn3)cc2)cc1 [Example 21, Thioacetic acid S-(2-oxo-2-{4-[4-(2-pyridin-2-yl-ethoxy)-benzenesulfonylamino]-phenyl}-ethyl) ester]	≤ 1000 nM
≤ 1000 nM	CC(=O)SCC(=O)c1ccc(NS(=O)(=O)c2ccc(OCCCN3CCOCC3)cc2)cc1 [Example 12, Thioacetic acid S-(2-{4-[4-(3-morpholin-4-yl-propoxy)-benzenesulfonylamino]-phenyl}-2-oxo-ethyl) ester]	≤ 1000 nM
≤ 1000 nM	CC(=O)SCC(=O)c1ccc(NS(=O)(=O)c2ccc(Oc3ccccc3)cc2)cc1 [Example 03, Thioacetic acid S-{2-oxo-2-[4-(4-phenoxy-benzenesulfonylamino)-phenyl]-ethyl} ester]	≤ 1000 nM
≤ 1000 nM	CC(=O)SCC(=O)c1ccc(NS(=O)(=O)c2ccc(OCCc3ccccn3)cc2)nc1 [Example 18, Thioacetic acid S-(2-oxo-2-{6-[4-(2-pyridin-2-yl-ethoxy)-benzenesulfonylamino]-pyridin-3-yl}-ethyl) ester]	≤ 1000 nM
≤ 1000 nM	CC(=O)SCC(=O)c1ccc(NS(=O)(=O)c2ccc(OC3CCN(C)CC3)cc2)nc1 [Example 29, Thioacetic acid S-(2-{6-[4-(1-methyl-piperidin-4-yloxy)-benzenesulfonylamino]-pyridin-3-yl}-2-oxo-ethyl) ester]	≤ 1000 nM
≤ 1000 nM	CC(=O)SCC(=O)c1ccc(NS(=O)(=O)c2ccc(NCc3ccccn3)cc2)cc1 [Example 08, Thioacetic acid S-[2-oxo-2-(4-{4-[(pyridin-2-ylmethyl)-amino]-benzenesulfonylamino}-phenyl)-ethyl] ester]	≤ 1000 nM
≤ 1000 nM	CC(=O)SCC(=O)c1ccc(NS(=O)(=O)c2ccc(OCCCN3CCCCC3)cc2)nc1 [Example 25, Thioacetic acid S-(2-oxo-2-{6-[4-(3-piperidin-1-yl-propoxy)-benzenesulfonylamino]-pyridin-3-yl}-ethyl) ester]	≤ 1000 nM
≤ 1000 nM	CC(=O)SCC(=O)c1ccc(NS(=O)(=O)c2ccc(OCCN3CCOCC3)cc2)cc1 [Example 20, Thioacetic acid S-(2-{4-[4-(2-morpholin-4-yl-ethoxy)-benzenesulfonylamino]-phenyl}-2-oxo-ethyl) ester]	≤ 1000 nM
≤ 1000 nM	CC(=O)SCC(=O)c1ccc(NS(=O)(=O)c2ccc(OCCCc3ccccn3)cc2)cc1 [Example 17, Thioacetic acid S-(2-oxo-2-{4-[4-(3-pyridin-2-yl-propoxy)-benzenesulfonylamino]-phenyl}-ethyl) ester]	≤ 1000 nM
≤ 1000 nM	CC(=O)SCC(=O)c1ccc(NS(=O)(=O)c2ccc(OCCCN3CCCCC3)cc2)cc1 [Example 22, Thioacetic acid S-(2-oxo-2-{4-[4-(3-piperidin-1-yl-propoxy)-benzenesulfonylamino]-phenyl}-ethyl) ester]	≤ 1000 nM
≤ 1000 nM	CC(=O)SCC(=O)c1ccc(NS(=O)(=O)c2ccc(OCc3ccccn3)cc2)nc1 [Example 23, Thioacetic acid S-(2-oxo-2-{6-[4-(pyridin-2-ylmethoxy)-benzenesulfonylamino]-pyridin-3-yl}-ethyl) ester]	≤ 1000 nM
≤ 1000 nM	CC(=O)SCC(=O)c1ccc(NS(=O)(=O)c2ccc(S(=O)(=O)N3CCOCC3)cc2)cc1 [Example 05, Thioacetic acid S-(2-{4-[4-(morpholine-4-sulfonyl)-benzenesulfonylamino]-phenyl}-2-oxo-ethyl) ester]	≤ 1000 nM
≤ 1000 nM	CC(=O)SCC(=O)c1ccc(NS(=O)(=O)c2ccc(OCCCc3ccccn3)cc2)nc1 [Example 28, Thioacetic acid S-(2-oxo-2-{6-[4-(3-pyridin-2-yl-propoxy)-benzenesulfonylamino]-pyridin-3-yl}-ethyl) ester]	≤ 1000 nM
≤ 1000 nM	CC(=O)SCC(=O)c1ccc(NS(=O)(=O)c2ccc(Oc3ccc(Cl)cc3)cc2)cc1 [Example 04, Thioacetic acid S-(2-{4-[4-(4-chloro-phenoxy)-benzenesulfonylamino]-phenyl}-2-oxo-ethyl) ester]	≤ 1000 nM
≤ 1000 nM	CC(=O)SCC(=O)c1ccc(NS(=O)(=O)c2ccc(OC3CCN(C)CC3)cc2)cc1 [Example 10, Thioacetic acid S-(2-{4-[4-(1-methyl-piperidin-4-yloxy)-benzenesulfonylamino]-phenyl}-2-oxo-ethyl) ester]	≤ 1000 nM
≤ 1000 nM	CC(=O)SCC(=O)c1ccc(NS(=O)(=O)c2ccc(OCCN3CCCCC3)cc2)nc1 [Example 24, Thioacetic acid S-(2-oxo-2-{6-[4-(2-piperidin-1-yl-ethoxy)-benzenesulfonylamino]-pyridin-3-yl}-ethyl) ester]	≤ 1000 nM

SMILES	IC50 (HDAC)	IC50 (HDAC in cells)
CC(=O)SCC(=O)c1ccc(NS(=O)(=O)c2ccc(OCCCCc3ccccc3)cc2)cc1 [Example 13, Thioacetic acid S-(2-oxo-2-{4-[4-(4-phenyl-butoxy)-benzenesulfonylamino]-phenyl}-ethyl) ester]	≤ 1000 nM	≤ 1000 nM
CC(=O)SCC(=O)c1ccc(NS(=O)(=O)c2ccc(OCCCCc3ccccc3)cc2)nc1 [Example 14, Thioacetic acid S-(2-oxo-2-{6-[4-(4-phenyl-butoxy)-benzenesulfonylamino]-pyridin-3-yl}-ethyl) ester]	≤ 1000 nM	≤ 1000 nM
